Test results from patent publication US5247084A, “Derivatives of p-guanidinobenzoic acid” (priority 1985, dated 1993).
Counter-ions that a name gives are not always drawn. Like-named read-outs stand apart in the source and are kept apart here. One block for each molecule: values may come before it.

Tests used:
[1] = acute toxicity test in mice by intravenous administration; settings: mouse, in vivo
[2] = biological target: T1, elastase from human neutrophil (Homo sapiens, UniProt P08246); assay: Inhibitory effect on elastase (spectrophotometric method, substrate Suc-Ala-Pro-Ala-pNA); format: biochemical; settings: for inhibition at 50 µg/mL: at 50 μg/ml, read-out: Elastase Inhibitory Effect, Inhibition %
T1 construct: using elastase from human neutrophil; from tissue; host or cells: human neutrophil
T1 sequence (P08246 30-247 limits assumed): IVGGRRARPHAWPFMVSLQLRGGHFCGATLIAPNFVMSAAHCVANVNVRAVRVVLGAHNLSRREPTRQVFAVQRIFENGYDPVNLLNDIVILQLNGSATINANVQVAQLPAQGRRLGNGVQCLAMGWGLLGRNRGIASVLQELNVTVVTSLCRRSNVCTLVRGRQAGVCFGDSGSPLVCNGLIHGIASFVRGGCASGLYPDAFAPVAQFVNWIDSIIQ
Procedure: The test was carried out by the slight modification of the method of Bieth et al [see Biochem. Med., 75, 350 (1974)] using elastase from human neutrophil.
The reaction mixture consisted of 1 mM Suc-Ala-Pro-Ala-pNA (dissolving in N-methylpyrrolidone to the concentration of 100 mM, and then adding 1/100 amount of the solution to the reaction mixture.), 0.1 M buffer solution of tris-hydrochloric acid (pH 8.0), 0.2 M sodium chloride aqueous solution, the sample solution of various concentrations and enzyme solution in a final volume of 1.0 ml was incubated at 37° C. for 30 minutes.
The reaction was stopped by the addition of 100 μl of 50% acetic acid into the reaction mixture, and then p-nitro anilide released was measured on absorbance of 405 nm.
Inhibition percentage of the test compounds was caliculated by the following equation: [formula]

[3] = Y represents an oxygen atom, pH 8.0, 37° C., 30 minutes, read-out: Inhibitory Effect on Elastase, IC50
[4] = Y represents a sulfur atom, pH 8.0, 37° C., 30 minutes, read-out: Elastase Inhibitory Effect, IC50

Compound: CCN(CC)S(=O)(=O)c1ccc(SC(=O)c2ccc(NC(=N)N)cc2)cc1Cl
LD50 [1]: 50 to 150 mg/kg

Compound: CCS(=O)(=O)Oc1cc(Cl)cc(SC(=O)c2ccc(NC(=N)N)cc2)c1
LD50 [1]: 50 to 150 mg/kg

Compound: N=C(N)Nc1ccc(C(=O)Sc2cc(O)cc(Cl)c2)cc1 [3-chloro-5-hydroxy (Y = sulfur atom)]
LD50 [1]: 50 to 150 mg/kg

Compound: N=C(N)Nc1ccc(C(=O)Oc2cc(Cl)ccc2Cl)cc1 [Example 37]
IC50 [2, 3]: 1.1 µM
inhibition at 100 µM ([2]; Y represents an oxygen atom): 85.8%
LD50 [1]: 50 to 150 mg/kg

Compound: CC(=O)O.CCS(=O)(=O)Oc1cc(Cl)cc(OC(=O)c2ccc(NC(=N)N)cc2)c1 [Example 75, p-guanidinobenzoic acid 3-chloro-5-ethanesulfonyloxyphenyl ester acetate]
IC50 [2, 3]: 1.1 µM
LD50 [1]: 50 to 150 mg/kg

inhibition at 100 µM ([2]; Y represents an oxygen atom): 38%
Compound: CNC(=O)c1cc(OC(=O)c2ccc(NC(=N)N)cc2)cc(OC(=O)c2ccc(NC(=N)N)cc2)c1 [Example 82]

inhibition at 100 µM ([2]; Y represents an oxygen atom): 28%
Compound: CCNC(=O)c1cc(OC(=O)c2ccc(NC(=N)N)cc2)cc(C(=O)NCC)c1 [Example 83]

inhibition at 100 µM ([2]; Y represents an oxygen atom): 36%
Compound: CCCNC(=O)c1cc(OC(=O)c2ccc(NC(=N)N)cc2)cc(C(=O)NCCC)c1 [Example 84]

inhibition at 100 µM ([2]; Y represents an oxygen atom): 27%
Compound: N=C(N)Nc1ccc(C(=O)Oc2cc(OC(=O)c3ccc(NC(=N)N)cc3)cc(C(=O)NCc3ccccc3)c2)cc1 [Example 85]

IC50 [2, 3]: 0.93 µM
Compound: N=C(N)Nc1ccc(C(=O)Oc2cc(Cl)cc(C(=O)Nc3cccnc3)c2)cc1 [Example 86]

Compound: CN(C)C(=O)Oc1cc(Cl)cc(OC(=O)c2ccc(NC(=N)N)cc2)c1 [Example 87]
IC50 [2]: 0.76 µM

Compound: CCNC(=O)Oc1cc(Cl)cc(OC(=O)c2ccc(NC(=N)N)cc2)c1 [Example 88]
IC50 [2]: 1.1 µM

IC50 [2, 3]: 65 µM
Compound: N=C(N)Nc1ccc(C(=O)Oc2cccc(S(N)(=O)=O)c2)cc1 [Example 89]

IC50 [2, 3]: 140 µM
Compound: CN(C)S(=O)(=O)c1ccc(OC(=O)c2ccc(NC(=N)N)cc2)cc1Cl [Example 90]

IC50 [2, 3]: 180 µM
Compound: CCN(CC)S(=O)(=O)c1ccccc1OC(=O)c1ccc(NC(=N)N)cc1 [Example 91]

IC50 [2, 3]: 35 µM
Compound: CCN(CC)S(=O)(=O)c1cccc(OC(=O)c2ccc(NC(=N)N)cc2)c1 [Example 92]

IC50 [2, 3]: 58 µM
Compound: CCN(CC)S(=O)(=O)c1ccc(OC(=O)c2ccc(NC(=N)N)cc2)cc1 [Example 93]

Compound: CCN(CC)S(=O)(=O)c1ccc(OC(=O)c2ccc(NC(=N)N)cc2)cc1Cl [Example 94]
IC50 [2, 3]: 22 µM
LD50 [1]: 50 to 150 mg/kg

IC50 [2, 3]: 4.8 µM
Compound: CCN(CC)S(=O)(=O)c1cc(Cl)cc(OC(=O)c2ccc(NC(=N)N)cc2)c1 [Example 95]

IC50 [2, 3]: 61 µM
Compound: CCN(CC)S(=O)(=O)c1ccc(OC(=O)c2ccc(NC(=N)N)cc2)c(F)c1 [Example 96]

IC50 [2, 3]: 58 µM
Compound: CCCN(CCC)S(=O)(=O)c1ccc(OC(=O)c2ccc(NC(=N)N)cc2)cc1 [Example 97]

IC50 [2, 3]: 77 µM
Compound: N=C(N)Nc1ccc(C(=O)Oc2ccc(S(=O)(=O)N3CCCC3)cc2)cc1 [Example 98]

inhibition at 100 µM ([2]; Y represents an oxygen atom): 41%
Compound: N=C(N)Nc1ccc(C(=O)Oc2cccc(S(=O)(=O)N3CCCCC3)c2)cc1 [Example 99]

inhibition at 100 µM ([2]; Y represents an oxygen atom): 44.2%
Compound: N=C(N)Nc1ccc(C(=O)Oc2cccc(S(=O)(=O)N3CCOCC3)c2)cc1 [Example 100]

inhibition at 100 µM ([2]; Y represents an oxygen atom): 34.9%
Compound: N=C(N)Nc1ccc(C(=O)Oc2ccc(S(=O)(=O)N3CCOCC3)cc2)cc1 [Example 101]

IC50 [2, 3]: 1.3 µM
Compound: N=C(N)Nc1ccc(C(=O)Oc2cc(Cl)cc(C(=O)Nc3ccc(S(N)(=O)=O)cc3)c2)cc1 [Example 102]

IC50 [2, 3]: 0.95 µM
Compound: CN(C)S(=O)(=O)c1ccc(NC(=O)c2cc(Cl)cc(OC(=O)c3ccc(NC(=N)N)cc3)c2)cc1 [Example 103]

IC50 [2, 3]: 1.1 µM
Compound: CCN(CC)S(=O)(=O)c1ccc(NC(=O)c2cc(Cl)cc(OC(=O)c3ccc(NC(=N)N)cc3)c2)cc1 [Example 104]

IC50 [2, 3]: 8.5 µM
Compound: CS(=O)(=O)Nc1ccc(Cl)c(OC(=O)c2ccc(NC(=N)N)cc2)c1 [Example 105]

IC50 [2, 3]: 15 µM
Compound: CCS(=O)(=O)Nc1cc(Cl)cc(OC(=O)c2ccc(NC(=N)N)cc2)c1 [Example 106]

IC50 [2, 3]: 11 µM
inhibition at 100 µM ([2]; Y represents an oxygen atom): 87%
Compound: N=C(N)Nc1ccc(C(=O)Oc2cccc([N+](=O)[O-])c2)cc1 [Example 107]

IC50 [2, 3]: 120 µM
inhibition at 100 µM ([2]; Y represents an oxygen atom): 60.1%
Compound: N=C(N)Nc1ccc(C(=O)Oc2ccc([N+](=O)[O-])cc2)cc1 [Example 108]

IC50 [2, 3]: 160 µM
Compound: Cc1cc(O)cc(OC(=O)c2ccc(NC(=N)N)cc2)c1 [Example 109]

IC50 [2, 3]: 20 µM
Compound: COc1cc(O)cc(OC(=O)c2ccc(NC(=N)N)cc2)c1 [Example 110]

inhibition at 100 µM ([2]; Y represents an oxygen atom): 45%
Compound: COC(=O)c1cc(O)cc(OC(=O)c2ccc(NC(=N)N)cc2)c1 [Example 111]

inhibition at 100 µM ([2]; Y represents an oxygen atom): 42%
Compound: N=C(N)Nc1ccc(C(=O)Oc2cc(O)cc(OC(=O)c3ccc(NC(=N)N)cc3)c2)cc1 [Example 113]

inhibition at 100 µM ([2]; Y represents an oxygen atom): 22%
Compound: CNC(=O)c1cc(O)cc(OC(=O)c2ccc(NC(=N)N)cc2)c1 [Example 114]

IC50 [2, 3]: 88 µM
Compound: N=C(N)Nc1ccc(C(=O)Oc2cc(O)cc(C(=O)NCc3ccccc3)c2)cc1 [Example 115]

inhibition at 100 µM ([2]; Y represents an oxygen atom): 20%
Compound: N=C(N)Nc1ccc(C(=O)Oc2cccc(NC(=N)N)c2)cc1 [Example 116]

IC50 [2, 3]: > 100 µM
Compound: N=C(N)Nc1ccc(OC(=O)c2ccc(NC(=N)N)cc2)cc1 [Example 117]

IC50 [2, 3]: 47 µM
Compound: N=C(N)Nc1ccc(C(=O)Oc2cc(NC(=N)N)ccc2Cl)cc1 [Example 118]

IC50 [2, 3]: 4.7 µM
Compound: N=C(N)Nc1ccc(C(=O)Oc2cc(Cl)cc(OCc3ccccc3)c2)cc1 [Example 119]

IC50 [2, 3]: 6 µM
Compound: N=C(N)Nc1ccc(SCc2cc(Cl)cc(OC(=O)c3ccc(NC(=N)N)cc3)c2)cc1 [Example 120]

IC50 [2, 3]: 1.1 µM
Compound: N=C(N)Nc1ccc(C(=O)Oc2cc(Cl)cc(COc3cccnc3)c2)cc1 [Example 121]

IC50 [2, 3]: 12 µM
Compound: COc1cc(OC(=O)c2ccc(NC(=N)N)cc2)cc(C(=O)N2CCS(=O)(=O)C2)c1 [Example 122]

IC50 [2, 3]: 3.1 µM
Compound: N=C(N)Nc1ccc(C(=O)Oc2cc(Cl)cc(C(=O)N3CCS(=O)(=O)C3)c2)cc1 [Example 123]

IC50 [2, 4]: 20 µM
inhibition at 50 µg/mL ([2]; Y represents a sulfur atom): 76.3%
Compound: Cc1ccccc1SC(=O)c1ccc(NC(=N)N)cc1 [Example 125]

IC50 [2, 4]: 5 µM
inhibition at 50 µg/mL ([2]; Y represents a sulfur atom): 89.7%
Compound: Cc1cccc(SC(=O)c2ccc(NC(=N)N)cc2)c1 [Example 126]

inhibition at 50 µg/mL ([2]; Y represents a sulfur atom): 29.3%
Compound: Cc1ccc(SC(=O)c2ccc(NC(=N)N)cc2)cc1 [Example 127]

IC50 [2, 4]: 21 µM
inhibition at 50 µg/mL ([2]; Y represents a sulfur atom): 79.8%
Compound: COc1ccccc1SC(=O)c1ccc(NC(=N)N)cc1 [Example 128]

IC50 [2, 4]: 6.4 µM
inhibition at 50 µg/mL ([2]; Y represents a sulfur atom): 89.2%
Compound: COc1cccc(SC(=O)c2ccc(NC(=N)N)cc2)c1 [Example 129]

inhibition at 50 µg/mL ([2]; Y represents a sulfur atom): 48.2%
Compound: COc1ccc(SC(=O)c2ccc(NC(=N)N)cc2)cc1 [Example 130]

IC50 [2, 4]: 21 µM
inhibition at 50 µg/mL ([2]; Y represents a sulfur atom): 83%
Compound: N=C(N)Nc1ccc(C(=O)Sc2ccc(F)cc2)cc1 [Example 131]

IC50 [2, 4]: 1.8 µM
inhibition at 50 µg/mL ([2]; Y represents a sulfur atom): 93%
Compound: N=C(N)Nc1ccc(C(=O)Sc2ccccc2Cl)cc1 [Example 132]

IC50 [2, 4]: 0.3 µM
inhibition at 50 µg/mL ([2]; Y represents a sulfur atom): 81.2%
Compound: N=C(N)Nc1ccc(C(=O)Sc2cccc(Cl)c2)cc1 [Example 133]

inhibition at 50 µg/mL ([2]; Y represents a sulfur atom): 69.5%
Compound: N=C(N)Nc1ccc(C(=O)Sc2ccc(Cl)cc2)cc1 [Example 134]

IC50 [2, 4]: 45 µM
inhibition at 50 µg/mL ([2]; Y represents a sulfur atom): 64.5%
Compound: N=C(N)Nc1ccc(C(=O)Sc2c(Cl)cccc2Cl)cc1 [Example 136]

inhibition at 50 µg/mL ([2]; Y represents a sulfur atom): 35.5%
Compound: N=C(N)Nc1ccc(C(=O)Sc2ccc(Cl)c(Cl)c2)cc1 [Example 137]

IC50 [2, 4]: 1.6 µM
inhibition at 50 µg/mL ([2]; Y represents a sulfur atom): 83.1%
Compound: N=C(N)Nc1ccc(C(=O)Sc2ccccc2Br)cc1 [Example 138]

inhibition at 50 µg/mL ([2]; Y represents a sulfur atom): 23.2%
Compound: N=C(N)Nc1ccc(C(=O)Sc2ccc(C(=O)O)cc2)cc1 [Example 139]

inhibition at 50 µg/mL ([2]; Y represents a sulfur atom): 47.8%
Compound: N=C(N)Nc1ccc(C(=O)Sc2ccc(CC(=O)O)cc2)cc1 [Example 140]

IC50 [2, 4]: 2.6 µM
inhibition at 50 µg/mL ([2]; Y represents a sulfur atom): 96.3%
Compound: COC(=O)c1ccccc1SC(=O)c1ccc(NC(=N)N)cc1 [Example 141]

inhibition at 50 µg/mL ([2]; Y represents a sulfur atom): 69.1%
Compound: CCOC(=O)c1ccc(SC(=O)c2ccc(NC(=N)N)cc2)cc1 [Example 142]

inhibition at 50 µg/mL ([2]; Y represents a sulfur atom): 75.5%
Compound: CCOC(=O)Cc1ccc(SC(=O)c2ccc(NC(=N)N)cc2)cc1 [Example 144]

IC50 [2, 4]: 18 µM
inhibition at 50 µg/mL ([2]; Y represents a sulfur atom): 64.2%
Compound: N=C(N)Nc1ccc(C(=O)Sc2ccc([N+](=O)[O-])cc2)cc1 [Example 145]

IC50 [2, 4]: 11 µM
inhibition at 50 µg/mL ([2]; Y represents a sulfur atom): 73.1%
Compound: CCN(CC)S(=O)(=O)c1ccc(SC(=O)c2ccc(NC(=N)N)cc2)cc1 [Example 146]

IC50 [2, 3]: 20 µM
Compound: N=C(N)Nc1ccc(C(=O)Oc2cccc(C(=O)O)c2Cl)cc1 [Example 147, P-guanidinobenzoic acid 3-carboxy-2-chlorophenylester hydrobromide]

inhibition at 100 µM ([2]; Y represents an oxygen atom): 25%
Compound: N=C(N)Nc1ccc(C(=O)Oc2cc(C(=O)O)cc(C(=O)O)c2)cc1 [Example 148]

IC50 [2, 3]: 60 µM
Compound: N=C(N)Nc1ccc(C(=O)Oc2cc(Cl)ccc2C(=O)O)cc1 [Example 149]

IC50 [2, 3]: 4.5 µM
Compound: N=C(N)Nc1ccc(C(=O)Oc2cc(Cl)cc(CO)c2)cc1 [Example 150, P-guanidinobenzoic acid 3-chloro-5-hydroxymethylphenylester acetate]

IC50 [2, 3]: 1.4 µM
Compound: N=C(N)Nc1ccc(C(=O)Oc2cc(Cl)cc(COc3ccc(S(=O)(=O)N4CCOCC4)cc3)c2)cc1 [Example 151, P-guanidinobenzoic acid 3-chloro-5-(4-morpholinosulfonyl)phenoxymethylphenylester acetate]

IC50 [2, 3]: 7 µM
Compound: COc1cc(COc2ccc(S(=O)(=O)N3CCOCC3)cc2)cc(OC(=O)c2ccc(NC(=N)N)cc2)c1 [Example 152, p-guanidinobenzoic acid 3-methoxy-5-(4-morpholinosulfonyl)phenoxymethylphenylester acetate]
